Data on 24 molecules can be found in patent US8871783B2, “Substituted 2-aza-bicyclo[2.2.1]heptane-3-carboxylic acid (cyano-methyl)-amides inhibitors of cathepsin C” (Boehringer Ingelheim International GmBh, priority 2013, dated 2014).

The target of the test is recombinant human DPPI (Homo sapiens (Human), UniProt P53634). Description: Inhibition of Human DPPI (Cathepsin C). The class given is biochemical. The following applies: substrate Gly-Arg-AMC 50 μM, MES buffer pH 6.0, fluorescence. The text has this: Inhibition of Human DPPI (Cathepsin C)
recombinant human DPPI, sequence (P53634 231-394): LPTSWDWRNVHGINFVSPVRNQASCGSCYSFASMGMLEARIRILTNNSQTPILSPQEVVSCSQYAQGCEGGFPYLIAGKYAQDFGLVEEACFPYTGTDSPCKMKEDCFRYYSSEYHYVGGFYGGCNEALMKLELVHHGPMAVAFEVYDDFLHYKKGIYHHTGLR
recombinant human DPPI, sequence (P53634 395-463): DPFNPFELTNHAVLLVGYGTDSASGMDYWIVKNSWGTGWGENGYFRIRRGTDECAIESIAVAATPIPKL
recombinant human DPPI, sequence (P53634 25-134): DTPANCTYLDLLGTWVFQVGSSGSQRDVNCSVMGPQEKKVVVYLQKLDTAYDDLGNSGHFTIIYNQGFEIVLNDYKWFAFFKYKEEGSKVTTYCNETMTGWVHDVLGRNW
Materials: Microtiterplates (Optiplate-384 F) were purchased from PerkinElmer (Prod. No. 6007270). The substrate Gly-Arg-AMC was from Biotrend (Prod.-No. 808756 Custom peptide). Bovine serum albumin (BSA; Prod. No. A3059) and Dithiothreitol (DTT; Prod. No D0632) were from Sigma. TagZyme buffer was from Riedel-de-Haen (Prod.-No. 04269), NaCl was from Merck (Prod.-No. 1.06404.1000) and morpholinoethane sulfonic acid (MES), was from Serva (Prod.-No. 29834). The DPP1 inhibitor Gly-Phe-DMK was purchased from MP Biomedicals (Prod.-No. 03DK00625). The recombinant human DPPI was purchased from Prozymex. All other materials were of highest grade commercially available.
The following buffers were used: MES buffer: 25 mM MES, 50 mM NaCl, 5 mM DTT, adjusted to pH 6.0, containing 0.1% BSA; TAGZyme Buffer: 20 mM NaH2PO4, 150 mM NaCl adjusted to pH 6.0 with HCl
Assay conditions: The recombinant human DPPI was diluted in TAGZyme buffer to 1 U/ml (38.1 μg/ml, respectively), and then activated by mixing in a 1:2 ratio with a Cysteamine aqueous solution (2 mM) and incubating for 5 min at room temperature.
Five uL test compound (final concentration 0.1 nM to 100 μM) in aqua bidest (containing 4% DMSO, final DMSO concentration 1%) were mixed with 10 μL of DPPI in MES buffer (final concentration 0.0125 ng/μL) and incubated for 10 min. Then, 5 μL of substrate in MES buffer (final concentration 50 μM) were added. The microtiter plates were then incubated at room temperature for 30 min. Then, the reaction was stopped by adding 10 μL of Gly-Phe-DMK in MES-buffer (final concentration 1 μM). The fluorescence in the wells was determined using a Molecular Devices SpectraMax M5 Fluorescence Reader (Ex 360 nm, Em 460 nm) or an Envision Fluorescence Reader (Ex 355 nm, Em 460 nm).
Each assay microtiter plate contained wells with vehicle controls (1% DMSO in bidest+0.075% BSA) as reference for non-inhibited enzyme activity (100% Ctl; high values) and wells with inhibitor (Gly-Phe-DMK, in bidest+1% DMSO+0.075% BSA, final concentration 1 μM) as controls for background fluorescence (0% Ctl; low values).
The analysis of the data was performed by calculating the percentage of fluorescence in the presence of test compound in comparison to the fluorescence of the vehicle control after subtracting the background fluorescence using the following formula: (RFU(sample)−RFU(background))*100/(RFU(control)−RFU(background)) […]

Each structure is given as a SMILES string.

For orientation: Ki means the equilibrium dissociation constant of an inhibitor or competing ligand from its target. For the molecule `N#Cc1ccc(-c2ccc(C[C@@H](C#N)NC(=O)[C@H]3N[C@@H]4CC[C@H]3C4)s2)cc1F` [Example 1], the inhibition constant Ki turned out to be 0.0137 µM.

As to `CS(=O)(=O)c1ccc(-c2ccc(C[C@@H](C#N)NC(=O)[C@H]3N[C@@H]4CC[C@H]3C4)s2)cc1` [Example 2], the inhibition constant (Ki) was 0.0173 µM.

Regarding `CN1C(=O)Cc2ccc(-c3ccc(C[C@@H](C#N)NC(=O)[C@H]4N[C@@H]5CC[C@H]4C5)s3)cc21` [Example 3], the Ki turned out to be 0.0032 µM.

For `CN1C(=O)C(=O)c2ccc(-c3ccc(C[C@@H](C#N)NC(=O)[C@H]4N[C@@H]5CC[C@H]4C5)s3)cc21` [Example 4], the inhibition constant Ki was determined as 0.0021 µM.

`CN1C(=O)Cc2ccc(-c3ccc(C[C@@H](C#N)NC(=O)[C@H]4N[C@@H]5CC[C@H]4C5)o3)cc21` [Example 5]: the inhibition constant (Ki) was 0.176 µM.

With `N#CC(Cc1cc2cc(Br)ccc2o1)NC(=O)[C@H]1N[C@@H]2CC[C@H]1C2` (stereo partly drawn) [Example 6], the Ki amounted to 0.0641 µM.

On to `N#Cc1ccc(-c2ccc3oc(CC(C#N)NC(=O)[C@H]4N[C@@H]5CC[C@H]4C5)cc3c2)cc1F` (stereo partly drawn) [Example 7], for which the Ki was found to be 0.0393 µM.

With `CN1C(=O)Cc2ccc(-c3ccc4oc(CC(C#N)NC(=O)[C@H]5N[C@@H]6CC[C@H]5C6)cc4c3)cc21` (stereo partly drawn) [Example 8], the Ki stood at 0.104 µM.

With `N#CC(Cc1cc2cc(-c3ccccc3)ccc2o1)NC(=O)[C@H]1N[C@@H]2CC[C@H]1C2` (stereo partly drawn) [Example 9], the Ki worked out at 0.062 µM.

With `N#CC(Cc1cc2cc(Br)ccc2s1)NC(=O)[C@H]1N[C@@H]2CC[C@H]1C2` (stereo partly drawn) [Example 10], the inhibitory constant (Ki) was found to be 0.0358 µM.

Turning to `N#CC(Cc1cc2cc(-c3ccccc3)ccc2s1)NC(=O)[C@H]1N[C@@H]2CC[C@H]1C2` (stereo partly drawn) [Example 11], the Ki worked out at 0.0728 µM.

For the molecule `CN1C(=O)Cc2ccc(-c3cnc(CC(C#N)NC(=O)[C@H]4N[C@@H]5CC[C@H]4C5)s3)cc21` (stereo partly drawn) [Example 12], the inhibitory constant (Ki) came out at 0.0149 µM.

As for `CN1C(=O)Cc2ccc(-c3csc(CC(C#N)NC(=O)[C@H]4N[C@@H]5CC[C@H]4C5)c3F)cc21` (stereo partly drawn) [Example 13], the inhibitory constant (Ki) came to 0.0617 µM.

As to `CC(=O)c1ccc(-c2ccc(C[C@@H](C#N)NC(=O)[C@H]3N[C@@H]4CC[C@H]3C4)s2)s1` [Example 14], the Ki worked out at 0.0134 µM.

Turning to `CN1C(=O)Cc2ccc(-c3csc(CC(C#N)NC(=O)[C@H]4N[C@@H]5CC[C@H]4C5)c3)cc21` (stereo partly drawn) [Example 15], the inhibition constant (Ki) is 0.0419 µM.

`CCn1cc(-c2ccc(C[C@@H](C#N)NC(=O)[C@H]3N[C@@H]4CC[C@H]3C4)s2)cn1` [Example 16]: the Ki came to 0.0171 µM.

With `N#C[C@H](Cc1ccc(-c2ccc3c(c2)NC(=O)C3)s1)NC(=O)[C@H]1N[C@@H]2CC[C@H]1C2` [Example 17], the Ki came out at 0.0042 µM.

Consider `N#C[C@H](Cc1ccc(-c2cnn(CC3CCOCC3)c2)s1)NC(=O)[C@H]1N[C@@H]2CC[C@H]1C2` [Example 18], for which the Ki was determined as 0.027 µM.

Regarding `CN1CCC(c2ccc(C[C@@H](C#N)NC(=O)[C@H]3N[C@@H]4CC[C@H]3C4)s2)CC1` [Example 20], the inhibitory constant (Ki) worked out at 0.0379 µM.

Take `CN1C(=O)Cc2ccc(-c3cc(F)c(CC(C#N)NC(=O)[C@H]4N[C@@H]5CC[C@H]4C5)s3)cc21` (stereo partly drawn) [Example 22]: the Ki turned out to be 0.0022 µM.

On to `CN1CCN(S(=O)(=O)c2ccc(-c3ccc(C[C@@H](C#N)NC(=O)[C@H]4N[C@@H]5CC[C@H]4C5)s3)cc2)CC1` [Example 23], for which the Ki worked out at 0.0029 µM.

For the molecule `CC1(C)OC(=O)c2cc(-c3ccc(C[C@@H](C#N)NC(=O)[C@H]4N[C@@H]5CC[C@H]4C5)s3)ccc21` [Example 24], the Ki came out at 0.0219 µM.

On to `CC1(C)OC(=O)c2ccc(-c3ccc(C[C@@H](C#N)NC(=O)[C@H]4N[C@@H]5CC[C@H]4C5)s3)cc21` [Example 25], for which the inhibition constant (Ki) worked out at 0.004 µM.

For `CS(=O)(=O)c1cccc(-c2ccc(C[C@@H](C#N)NC(=O)[C@H]3N[C@@H]4CC[C@H]3C4)s2)c1` [Example 26], the inhibition constant Ki amounted to 0.0167 µM.
